Reference: patent publication US20060069132A1, “Azolecarboxamide herbicides” (priority 2004, published 2006)
Where two headings read alike, the source gives them in different places.

Legend:
pigweed = assay: Test B pre-/postemergence herbicide test; format: in vivo, Amaranthus retroflexus; conditions: Amaranthus retroflexus, 336 h; for pest or weed control at 500 g/ha: 500 g ai/ha; for pest or weed control at 125 g/ha: 125 g ai/ha
How it was run: (§1)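 Plants compared with untreated controls 13–15 days post-treatment and given a visual 0–100 injury score. Applications: preemergence to seeds; postemergence at 1- to 4-leaf (2–18 cm); paddy species flooded, 2-leaf stage. Vehicle non-phytotoxic, surfactant included.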

barnyardgrass [1] = assay: Test B pre-/postemergence herbicide test; format: in vivo, Echinochloa crus-galli; conditions: Echinochloa crus-galli; for pest or weed control at 500 g/ha: 500 g ai/ha; for pest or weed control at 125 g/ha: 125 g ai/ha
How it was run: (§2)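 Formulation: non-phytotoxic solvent mix with surfactant. Timing: preemergence on seed and postemergence on 2–18 cm plants, applied concurrently. Readout after 13–15 d greenhouse: visual 0–100 control rating against controls.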

[2] = system: small flower umbrella sedge; assay: Test B flooded paddy test; format: in vivo, Cyperus difformis; conditions: Cyperus difformis, 336 h, 1000 g ai/ha, visual rating, scale 0 to 100 (0 no effect, 100 complete control), 13 to 15 days, read-out: Sedge, Umbrella plant response rating
How it was run: (§3)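 Scale 0–100: zero equals no visible effect, 100 complete control, judged by eye relative to controls. Timing: 13 to 15 days in greenhouse post-treatment. Growth stage at spraying: two leaves (paddy) or one to four leaves, 2–18 cm (postemergence).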

velvetleaf = assay: Test B pre-/postemergence herbicide test; format: in vivo, Abutilon theophrasti; conditions: Abutilon theophrasti, 336 h; for pest or weed control at 500 g/ha: 500 g ai/ha; for pest or weed control at 125 g/ha: 125 g ai/ha
How it was run: as §1

cocklebur = assay: Test B pre-/postemergence herbicide test; format: in vivo, Xanthium strumarium; conditions: Xanthium strumarium; for pest or weed control at 500 g/ha: 500 g ai/ha; for pest or weed control at 125 g/ha: 125 g ai/ha
How it was run: as §2

corn = assay: Test B pre-/postemergence herbicide test; format: in vivo, Zea mays; conditions: Zea mays
How it was run: as §1

wheat = assay: Test B postemergence herbicide test; format: in vivo, Triticum aestivum; conditions: scale 0 (no effect) to 100 (complete control)
How it was run: (§4)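 Each value is a visual 0–100 response rating taken against controls 13 to 15 days after treatment in the greenhouse. Plants received formulated chemical postemergence at the 1- to 4-leaf stage or, in flooded paddy, at the 2-leaf stage.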

giant foxtail = assay: Test B pre-/postemergence herbicide test; format: in vivo, Setaria faberi; conditions: Setaria faberi, 336 h; for pest or weed control at 500 g/ha: 500 g ai/ha; for pest or weed control at 125 g/ha: 125 g ai/ha
How it was run: as §1

large crabgrass = assay: Test B pre-/postemergence herbicide test; format: in vivo, Digitaria sanguinalis; conditions: Digitaria sanguinalis; for pest or weed control at 500 g/ha: 500 g ai/ha; for pest or weed control at 125 g/ha: 125 g ai/ha
How it was run: as §1

wild oat = assay: Test B postemergence herbicide test; format: in vivo, Avena fatua; conditions: scale 0 (no effect) to 100 (complete control)
How it was run: as §4

Surinam grass = assay: Test B pre-/postemergence herbicide test; format: in vivo, Urochloa decumbens; conditions: Urochloa decumbens; for pest or weed control at 500 g/ha: 500 g ai/ha; for pest or weed control at 125 g/ha: 125 g ai/ha
How it was run: as §1

ducksalad = assay: Test B flooded paddy test; format: in vivo, Heteranthera limosa; conditions: Heteranthera limosa, 336 h, 1000 g ai/ha, visual rating, scale 0 to 100 (0 no effect, 100 complete control), 13 to 15 days, read-out: Ducksalad plant response rating
How it was run: as §3

barnyardgrass [3] = assay: Test B flooded paddy test; format: in vivo, Echinochloa crus-galli; conditions: Echinochloa crus-galli, 336 h, 1000 g ai/ha, visual rating, scale 0 to 100 (0 no effect, 100 complete control), 13 to 15 days, read-out: Barnyardgrass plant response rating
How it was run: as §3

rice = assay: Test B flooded paddy test; format: in vivo, Oryza sativa; conditions: Oryza sativa, 336 h, 1000 g ai/ha, visual rating, scale 0 to 100 (0 no effect, 100 complete control), 13 to 15 days, read-out: Rice plant response rating
How it was run: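 Formulated test chemicals went onto postemergence plants measuring 2 to 18 cm, at one to four leaves. For the paddy assay, species had reached two leaves. Scoring took place 13–15 days later by eye, relative to untreated plants, using 0 for no effect up to 100 for full control.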

morningglory = assay: Test B pre-/postemergence herbicide test; format: in vivo, Ipomoea coccinea; conditions: Ipomoea, 336 h; for pest or weed control at 500 g/ha: 500 g ai/ha; for pest or weed control at 125 g/ha: 125 g ai/ha
How it was run: as §2

blackgrass = assay: Test B postemergence herbicide test; format: in vivo, Alopecurus myosuroides; conditions: Postemergence, 500 g ai/ha; visual rating after 13 to 15 days, scale 0 (no effect) to 100 (complete control)
How it was run: as §3

[4] = Postemergence, 500 g ai/ha, visual rating after 13 to 15 days

Molecule `CCn1nc(C(C)(C)C)cc1C(=O)Nc1cccc2c1CN(C)C2=O` [Compound 55, N-(2,3-dihydro-2-methyl-1-oxo-1H-isoindol-4-yl)-3-(1,1-dimethylethyl)-1-ethyl-1H-pyrazole-5-carboxamide] has a pest or weed control at 500 g/ha (pigweed; post-emergence, Postemergence, visual rating after 13 to 15 days, scale 0 (no effect) to 100 (complete control), read-out: Plant response rating, Pigweed) of 40%, a pest or weed control at 125 g/ha (pigweed; post-emergence, postemergence, visual rating, scale 0 (no effect) to 100 (complete control), read-out: Pigweed plant response rating) of 10% and a pest or weed control at 500 g/ha (pigweed; pre-emergence, Preemergence, scale 0 to 100, read-out: Pigweed plant response rating) of 100%. For the same molecule, the pest or weed control at 125 g/ha (pigweed; pre-emergence, preemergence, 0 to 100 scale, 0 is no effect, 100 is complete control, read-out: Plant response rating, Pigweed) was 80%, the pest or weed control at 500 g/ha (barnyardgrass [1]; post-emergence, Postemergence, visual rating after 13 to 15 days, scale 0 (no effect) to 100 (complete control), read-out: Plant response rating, Barnyardgrass) was 10% and the pest or weed control at 125 g/ha (barnyardgrass [1]; post-emergence, postemergence, visual rating, scale 0 (no effect) to 100 (complete control), read-out: Barnyardgrass plant response rating) was 10%. For the same molecule, the pest or weed control at 500 g/ha (barnyardgrass [1]; pre-emergence, Preemergence, scale 0 to 100, read-out: Barnyardgrass plant response rating) was 100%, the pest or weed control at 125 g/ha (barnyardgrass [1]; pre-emergence, preemergence, 0 to 100 scale, 0 is no effect, 100 is complete control, read-out: Plant response rating, Barnyardgrass) was 80% and the pest or weed control at 1000 g/ha [2] was 80%. For the same molecule, the pest or weed control at 500 g/ha (velvetleaf; post-emergence, Postemergence, visual rating after 13 to 15 days, scale 0 (no effect) to 100 (complete control), read-out: Plant response rating, Velvetleaf) was 40%, the pest or weed control at 125 g/ha (velvetleaf; post-emergence, postemergence, visual rating, scale 0 (no effect) to 100 (complete control), read-out: Velvetleaf plant response rating) was 20% and the pest or weed control at 500 g/ha (velvetleaf; pre-emergence, Preemergence, scale 0 to 100, read-out: Velvetleaf plant response rating) was 30%. The pest or weed control at 125 g/ha (velvetleaf; pre-emergence, preemergence, 0 to 100 scale, 0 is no effect, 100 is complete control, read-out: Plant response rating, Velvetleaf) was 0%, the pest or weed control at 500 g/ha (cocklebur; post-emergence, Postemergence, visual rating after 13 to 15 days, scale 0 (no effect) to 100 (complete control), read-out: Plant response rating, Cocklebur) was 40% and the pest or weed control at 125 g/ha (cocklebur; post-emergence, postemergence, visual rating, scale 0 (no effect) to 100 (complete control), read-out: Cocklebur plant response rating) was 10%. For the same molecule, the pest or weed control at 500 g/ha (cocklebur; pre-emergence, Preemergence, scale 0 to 100, read-out: Cocklebur plant response rating) was 10%, the pest or weed control at 125 g/ha (cocklebur; pre-emergence, preemergence, 0 to 100 scale, 0 is no effect, 100 is complete control, read-out: Plant response rating, Cocklebur) was 0% and the Corn plant response rating (crop injury, 0 = no effect, 100 = complete kill) at 500 g/ha (corn; post-emergence, Postemergence, 500 g ai/ha, visual rating after 13 to 15 days, scale 0 (no effect) to 100 (complete control)) was 30%. It also gave a plant injury at 125 g/ha (corn; post-emergence, postemergence, 125 g ai/ha, visual rating, scale 0 (no effect) to 100 (complete control), read-out: Corn plant response rating) of 20%, a plant injury at 500 g/ha (corn; pre-emergence, Preemergence, 500 g ai/ha, scale 0 to 100, read-out: Corn plant response rating) of 20% and a Corn plant response rating (crop injury, 0 = no effect, 100 = complete kill) at 125 g/ha (corn; pre-emergence, preemergence, 125 g ai/ha, 0 to 100 scale, 0 is no effect, 100 is complete control) of 0%. For the same molecule, the “Plant response rating, Wheat” value (wheat; [4]) was 10, the plant injury at 125 g/ha (wheat; Triticum aestivum, post-emergence, 336 h, postemergence, 125 g ai/ha, visual rating, read-out: Wheat plant response rating) was 10% and the pest or weed control at 500 g/ha (giant foxtail; post-emergence, Postemergence, visual rating after 13 to 15 days, scale 0 (no effect) to 100 (complete control), read-out: Plant response rating, Foxtail, Giant) was 10%. It also gave a pest or weed control at 125 g/ha (giant foxtail; post-emergence, postemergence, visual rating, scale 0 (no effect) to 100 (complete control), read-out: Foxtail, Giant plant response rating) of 0%, a pest or weed control at 500 g/ha (giant foxtail; pre-emergence, Preemergence, scale 0 to 100, read-out: Foxtail, Giant plant response rating) of 100% and a pest or weed control at 125 g/ha (giant foxtail; pre-emergence, preemergence, 0 to 100 scale, 0 is no effect, 100 is complete control, read-out: Plant response rating, Foxtail, Giant) of 60%. For the same molecule, the pest or weed control at 500 g/ha (large crabgrass; post-emergence, Postemergence, visual rating after 13 to 15 days, scale 0 (no effect) to 100 (complete control), read-out: Plant response rating, Crabgrass, Large) was 10%, the pest or weed control at 125 g/ha (large crabgrass; post-emergence, postemergence, visual rating, scale 0 (no effect) to 100 (complete control), read-out: Crabgrass, Large plant response rating) was 10% and the pest or weed control at 500 g/ha (large crabgrass; pre-emergence, Preemergence, scale 0 to 100, read-out: Crabgrass, Large plant response rating) was 100%. For the same molecule, the pest or weed control at 125 g/ha (large crabgrass; pre-emergence, preemergence, 0 to 100 scale, 0 is no effect, 100 is complete control, read-out: Plant response rating, Crabgrass, Large) was 90%, the pest or weed control at 125 g/ha (wild oat; Avena fatua, post-emergence, 336 h, postemergence, 125 g ai/ha, visual rating, read-out: Oat, Wild plant response rating) was 10% and the “Plant response rating, Oat, Wild” value (wild oat; [4]) was 20. For the same molecule, the pest or weed control at 500 g/ha (Surinam grass; post-emergence, Postemergence, visual rating after 13 to 15 days, scale 0 (no effect) to 100 (complete control), read-out: Plant response rating, Surinam Grass) was 10%, the pest or weed control at 125 g/ha (Surinam grass; post-emergence, postemergence, visual rating, scale 0 (no effect) to 100 (complete control), read-out: Surinam Grass plant response rating) was 10% and the pest or weed control at 500 g/ha (Surinam grass; pre-emergence, Preemergence, scale 0 to 100, read-out: Surinam Grass plant response rating) was 80%. It also gave a pest or weed control at 125 g/ha (Surinam grass; pre-emergence, preemergence, 0 to 100 scale, 0 is no effect, 100 is complete control, read-out: Plant response rating, Surinam Grass) of 50%, a pest or weed control at 1000 g/ha (ducksalad) of 80% and a pest or weed control at 1000 g/ha (barnyardgrass [3]) of 90%. The plant injury at 1000 g/ha (rice) was 70%, the pest or weed control at 500 g/ha (morningglory; post-emergence, Postemergence, visual rating after 13 to 15 days, scale 0 (no effect) to 100 (complete control), read-out: Plant response rating, Morningglory) was 10% and the pest or weed control at 125 g/ha (morningglory; post-emergence, postemergence, visual rating, scale 0 (no effect) to 100 (complete control), read-out: Morningglory plant response rating) was 10%. The pest or weed control at 500 g/ha (morningglory; pre-emergence, Preemergence, scale 0 to 100, read-out: Morningglory plant response rating) was 10%, the pest or weed control at 125 g/ha (morningglory; pre-emergence, preemergence, 0 to 100 scale, 0 is no effect, 100 is complete control, read-out: Plant response rating, Morningglory) was 0% and the “Plant response rating, Blackgrass” value (blackgrass) was 10.
